The results in this text go back to ChEMBL document CHEMBL1201862, “PubChem BioAssay data set” (2004).

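These data come from cells grown in 96-well plates and exposed to compound for 48 hours at five concentrations. Here, GI50 denotes the concentration required for 50% inhibition of growth.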 Calls of active or inactive are those of the source. Cut-off read from the data, not from the text of the source: active = GI50 up to about 1.1 µM and inactive = higher. Bounds are passed on as bounds.

Some test systems named below: K562; SNB-19; NCI-H460; UACC-62; KM-20L2; HCT-15; SF-268; NCI-H23; SF-295; NCI-H522; HOP-62; OVCAR-8; SK-MEL-2; Malme-3M; RPMI-8226; HL-60; DU-145; MCF7; T47D; DMS-273.
Common to all, as to experiment: NCI anticancer screen, dose series, 48 h

Consider `CC1(C)CCCC2(C)C3C(O)CC2(C)C(O)C31` (stereo not drawn), for which the GI50 was > 100 µM (inactive) in the assay with K562; > 100 µM (inactive) in the assay on SNB-19; > 100 µM (inactive) in the assay with NCI-H460; > 100 µM (inactive) with UACC-62; > 100 µM (inactive) with KM-20L2; above 100 µM in the assay with HCT-15. For the same molecule, the GI50 with SF-268, in the assay with NCI-H23, with SF-295, in the assay on NCI-H522, in the assay on HOP-62 and in the assay on OVCAR-8 was > 100 µM (inactive) each time. Further, the GI50 with SK-MEL-2 and in the assay on Malme-3M was > 100 µM (inactive) throughout.

Consider `O=c1oc2c3ccc4ccccc4c3n(CCCN3CCCCC3)c2c2ccccc12`, for which the GI50 in the assay with K562 was 10.2 µM (inactive); in the assay on RPMI-8226, 32.1 µM (inactive); in the assay with SNB-19, > 100 µM (inactive); in the assay with NCI-H460 it was 14.7 µM (inactive); in the assay with UACC-62, > 100 µM (inactive); in the assay on KM-20L2, 19.5 µM (inactive). Besides, the GI50 in the assay on HCT-15 is 29.1 µM; with SF-268, 59.2 µM (inactive); in the assay with SF-295 it was 46.9 µM (inactive); with NCI-H522 it was > 100 µM (inactive); with HOP-62, > 100 µM (inactive); in the assay with HL-60, 17.2 µM (inactive). Also, the GI50 in the assay on OVCAR-8 is 32.7 µM (inactive); in the assay with SK-MEL-2, > 100 µM (inactive); in the assay with Malme-3M, 20.7 µM (inactive).

Consider `COc1ccc(OC)c(C2Cc3cnc4nc(N)nc(N)c4c3C2)c1` (stereo not drawn), for which the GI50 with K562 was 19.1 µM (inactive); in the assay on RPMI-8226, 29.6 µM (inactive); with DU-145, 29.2 µM (inactive); in the assay on SNB-19, 38.4 µM (inactive); in the assay with NCI-H460, 26.5 µM (inactive); in the assay with UACC-62 it was 18.6 µM (inactive). For the same molecule, the GI50 was 29.2 µM in the assay with HCT-15; 29.2 µM (inactive) with MCF7; 34.2 µM (inactive) in the assay with SF-268; 32.2 µM (inactive) with NCI-H23; 28.6 µM (inactive) in the assay on SF-295; 24.1 µM (inactive) with NCI-H522. For the same molecule, the GI50 in the assay on HOP-62 is 34.4 µM (inactive); in the assay on HL-60, 20.4 µM (inactive); with OVCAR-8 it was 26.2 µM (inactive); in the assay with T47D, 25 µM (inactive); in the assay on SK-MEL-2, 21.1 µM (inactive); with Malme-3M, 20.8 µM (inactive).

As for `COC(=O)c1c(O)ccc2c1c1c(n2CCc2ccc(OC)c(OC)c2)C(=O)c2ccccc2C1=O`, the GI50 is 20.5 µM (inactive) with K562; 6.55 µM (inactive) with RPMI-8226; 15.6 µM (inactive) in the assay with DU-145; 22.5 µM (inactive) in the assay with SNB-19; 5.01 µM (inactive) in the assay with NCI-H460; 15.2 µM (inactive) with UACC-62. Further, the GI50 is 12.7 µM with HCT-15; 17.9 µM (inactive) in the assay with MCF7; 17.5 µM (inactive) with SF-268; 15.6 µM (inactive) with NCI-H23; 19.6 µM (inactive) with SF-295; 2.69 µM (inactive) in the assay on NCI-H522. Besides, the GI50 in the assay on HOP-62 is 16 µM (inactive); in the assay with HL-60 it was 23.4 µM (inactive); in the assay with OVCAR-8, 10.5 µM (inactive); with T47D it was 12 µM (inactive); in the assay with SK-MEL-2, 16.4 µM (inactive); with Malme-3M it was 14 µM (inactive).

With `COC(=O)C1CCCC2(C1)OCCO2` (stereo not drawn), the GI50 in the assay on K562, with RPMI-8226, in the assay on SNB-19, in the assay with NCI-H460, in the assay with UACC-62 and in the assay on KM-20L2 was > 100 µM (inactive) in each case. In addition, the GI50 with HCT-15 is above 100 µM; in the assay with DMS-273, > 100 µM (inactive); with SF-268, > 100 µM (inactive); in the assay with NCI-H23, > 100 µM (inactive); in the assay on SF-295 it was > 100 µM (inactive); in the assay on NCI-H522, > 100 µM (inactive). The GI50 in the assay on HOP-62, with OVCAR-8, with SK-MEL-2 and in the assay on Malme-3M was > 100 µM (inactive) each time.

Regarding `Cc1ccc(S(=O)(=O)N/N=C(/CC(=O)c2c(C)[n+]([O-])c3ccccc3[n+]2[O-])C(=O)Nc2ccc(C)c(C)c2)cc1`, the GI50 was 29.6 µM (inactive) in the assay on RPMI-8226; > 100 µM (inactive) in the assay on SNB-19; 41.9 µM (inactive) with NCI-H460; 79.8 µM (inactive) in the assay on UACC-62; > 100 µM (inactive) with KM-20L2; 48.6 µM in the assay with HCT-15. For the same molecule, the GI50 is 44.8 µM (inactive) in the assay on DMS-273; > 100 µM (inactive) in the assay with SF-268; > 100 µM (inactive) in the assay on NCI-H23; > 100 µM (inactive) in the assay with SF-295; 70.1 µM (inactive) with NCI-H522; > 100 µM (inactive) with HOP-62. Further, the GI50 with SK-MEL-2 and with Malme-3M was > 100 µM (inactive) each time.

For the molecule `Nc1nc(Cl)cc(NCC(O)CO)n1` (stereo not drawn), the GI50 in the assay with K562, in the assay with RPMI-8226, in the assay on SNB-19, in the assay on NCI-H460, in the assay with UACC-62 and in the assay with KM-20L2 was > 100 µM (inactive) each time. Moreover, the GI50 with HCT-15 is above 100 µM; with DMS-273 it was > 100 µM (inactive); in the assay on SF-268, > 100 µM (inactive); in the assay on NCI-H23, > 100 µM (inactive); in the assay with SF-295, > 100 µM (inactive); in the assay with HOP-62, > 100 µM (inactive). The GI50 in the assay on HL-60, in the assay on OVCAR-8, in the assay on SK-MEL-2 and with Malme-3M was > 100 µM (inactive) each time.

`O=C1c2ccccc2C2(O)N(c3ccccc3)C(=S)N(c3ccccc3)C12O` (stereo not drawn): the GI50 in the assay with K562, with RPMI-8226, in the assay on SNB-19, in the assay on NCI-H460, in the assay with UACC-62 and with KM-20L2 was > 100 µM (inactive) throughout. Moreover, the GI50 in the assay with HCT-15 is above 100 µM; in the assay with DMS-273, > 100 µM (inactive); in the assay on SF-268, > 100 µM (inactive); in the assay with NCI-H23 it was > 100 µM (inactive); in the assay on SF-295 it was > 100 µM (inactive); with NCI-H522, > 100 µM (inactive). Further, the GI50 with HOP-62, in the assay with OVCAR-8, in the assay on SK-MEL-2 and in the assay on Malme-3M was > 100 µM (inactive) in each case.

With `Cc1ccccc1/C=C/C(=O)c1ccccc1`, the GI50 in the assay with K562 is 20.6 µM (inactive); in the assay with RPMI-8226, 24.9 µM (inactive); in the assay on SNB-19, 16.5 µM (inactive); in the assay on NCI-H460, 17.8 µM (inactive); in the assay with UACC-62 it was 19.9 µM (inactive); in the assay with KM-20L2, 17.7 µM (inactive). Moreover, the GI50 in the assay with HCT-15 was above 10 µM; with DMS-273, 25.8 µM (inactive); in the assay on SF-268, 15.9 µM (inactive); in the assay on NCI-H23 it was 17.6 µM (inactive); with NCI-H522, 21.1 µM (inactive); with HOP-62, 16.7 µM (inactive). Also, the GI50 with OVCAR-8 was 25.2 µM (inactive); in the assay on SK-MEL-2 it was > 10 µM (inactive); in the assay with Malme-3M it was 18.1 µM (inactive).

Consider `COc1ccccc1NC(=O)C1=C(C)NC(C)=C(C(=O)Nc2ccccc2OC)C1C1=CC=COC1`, for which the GI50 was 3.78 µM (inactive) with K562; 13.2 µM (inactive) in the assay with RPMI-8226; 19.1 µM (inactive) in the assay with SNB-19; 3.92 µM (inactive) in the assay with NCI-H460; 3.3 µM (inactive) with UACC-62; 6.07 µM (inactive) in the assay on KM-20L2. For the same molecule, the GI50 in the assay on HCT-15 is 4.59 µM; with DMS-273, 6.81 µM (inactive); with SF-268, 13.6 µM (inactive); in the assay with NCI-H23 it was 23.9 µM (inactive); with SF-295, 6.73 µM (inactive); in the assay on HOP-62 it was 27.5 µM (inactive). Moreover, the GI50 in the assay with HL-60 was 3.94 µM (inactive); with OVCAR-8, 14.6 µM (inactive); in the assay with Malme-3M, 5.68 µM (inactive).

For the molecule `CCc1c(OC(C)=O)c2c(NC3OCC(OC(C)=O)C(OC(C)=O)C3OC(C)=O)nc(SC)nc2oc1=O` (stereo not drawn), the GI50 in the assay on K562, in the assay with RPMI-8226, in the assay on SNB-19, in the assay with NCI-H460, in the assay on UACC-62 and in the assay on KM-20L2 was > 100 µM (inactive) in each case. Also, the GI50 with HCT-15 is above 100 µM; with NCI-H23, > 100 µM (inactive); in the assay with SF-295, > 100 µM (inactive); in the assay with HOP-62, > 100 µM (inactive); in the assay on HL-60, > 100 µM (inactive); in the assay with OVCAR-8 it was > 100 µM (inactive). Besides, the GI50 in the assay with SK-MEL-2 and with Malme-3M was > 100 µM (inactive) throughout.

Turning to `COc1ccc(OC)c2cc(C3(C)SCCCS3)ccc12`, the GI50 in the assay on K562 was 53.5 µM (inactive); in the assay with RPMI-8226, 69.3 µM (inactive); with SNB-19, > 100 µM (inactive); in the assay with NCI-H460 it was 78.3 µM (inactive); in the assay on UACC-62, > 100 µM (inactive); in the assay on KM-20L2 it was 81.7 µM (inactive). Moreover, the GI50 with HCT-15 was 88.1 µM; with DMS-273 it was 79.6 µM (inactive); in the assay on SF-268, > 100 µM (inactive); in the assay with NCI-H23 it was 84.3 µM (inactive); in the assay with SF-295, 78.2 µM (inactive); with HOP-62, > 100 µM (inactive). The GI50 was 59.3 µM (inactive) with HL-60, > 100 µM (inactive) in the assay with OVCAR-8, > 100 µM (inactive) in the assay on SK-MEL-2 and > 100 µM (inactive) in the assay on Malme-3M.

On to `O=C(NC1CC1)c1c(O)[nH]c(=S)[nH]c1=O`, for which the GI50 in the assay with K562, with RPMI-8226, with SNB-19, in the assay on NCI-H460, in the assay on UACC-62 and in the assay on KM-20L2 was > 100 µM (inactive) each time. In addition, the GI50 in the assay on HCT-15 is above 100 µM; with SF-268 it was > 100 µM (inactive); in the assay with NCI-H23, > 100 µM (inactive); in the assay on SF-295, > 100 µM (inactive); with NCI-H522, > 100 µM (inactive); in the assay on HOP-62 it was > 100 µM (inactive). The GI50 with HL-60, with OVCAR-8, with SK-MEL-2 and in the assay on Malme-3M was > 100 µM (inactive) each time.
